# In paper PMC8521518, “Nicotinamide Adenine Dinucleotide-Dependent Flavin Oxidoreductase of Mycoplasma hyopneumoniae Functions as a Potential Novel Virulence Factor and Not Only as a Metabolic Enzyme” (Frontiers in Microbiology, 2021):
# Target: T1, rNFOR (Mhp NFOR, NADH-dependent flavin oxidoreductase) (Mesomycoplasma hyopneumoniae, UniProt E4QSY0)
# T1 construct: gene baiH; 44 kDa on gel
# Test: NADH oxidation
# Format: biochemical
# Details: 0.5 mM NADH, 10 uM FMN (5 min preincubation), 0.1 M potassium phosphate pH 7.5, 1 mM DTT, 25 C
# T1 sequence (E4QSY0 entry or part of it): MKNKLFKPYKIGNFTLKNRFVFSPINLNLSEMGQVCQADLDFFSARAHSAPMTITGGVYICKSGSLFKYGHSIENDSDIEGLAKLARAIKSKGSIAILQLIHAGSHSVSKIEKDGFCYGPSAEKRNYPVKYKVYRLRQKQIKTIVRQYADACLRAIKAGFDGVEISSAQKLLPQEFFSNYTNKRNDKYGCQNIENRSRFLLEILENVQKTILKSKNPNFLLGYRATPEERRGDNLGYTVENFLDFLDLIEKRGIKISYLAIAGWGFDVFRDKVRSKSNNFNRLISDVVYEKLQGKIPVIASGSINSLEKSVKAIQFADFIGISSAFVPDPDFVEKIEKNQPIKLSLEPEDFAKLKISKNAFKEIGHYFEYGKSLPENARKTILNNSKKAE
smiles,measurement,value
NC(=O)C1=CN([C@@H]2O[C@H](COP(=O)(O)OP(=O)(O)OC[C@H]3O[C@@H](n4cnc5c(N)ncnc54)[C@H](O)[C@@H]3O)[C@@H](O)[C@H]2O)C=CC1 [NADH],"NADH oxidation, absorbance at 340 nm",enzymatic activity of purified rNFOR was determined by calculating the oxidation of NADH to NAD^+
